Test results reported in patent US11964943B2, “3,5-diarylidenyl-n-substituted-piperid-4-one-derived inhibitors of Stat3 pathway activity and uses thereof” (priority 2017, dated 2024).
Converted amounts (≈) assume the structure as drawn. “And” between values parts separate entries of the source, which are not always exact repeats. Equal values may be shown once. Read-outs that look alike come from different tables or passages of the source.

What was measured:
[1] = tested on: A2780-cisplatin resistant spheroids; experiment: CellTiter-Glo 3D cell viability assay, A2780-cisplatin resistant spheroids; format: cell-based; conditions: 96 h exposure, 3D CellTiter-Glo
Procedure: For cell spheroid formation, HCT116-oxaliplatin resistant cells, A2780-cisplatin resistant cells, and HT1080 cells were seeded in Corning® Spheroid opaque-walled 96 well Microplates (ultra-low attachment; Nuclon™ Sphera™, Thermofisher) at densities of 2000 cells/well in 100 μl of cell solution and allowed to grow for 4 days, before any manipulation.
At the end of drug incubation, both the plates and the CellTitre-Glo® reagent (previously thawn overnight in the fridge) were equilibrated at room temperature for at least 30 min. Subsequently, 100 μl of cell solution were carefully removed from each well, without disrupting the spheroid and equal volume of CellTitre-Glo® reagent was added. Cell lysis was performed by vigorously shaking the plate for 5 min. To stabilize the luminescent signal, the plate was incubated in the dark at RT for another 30 min before luminescence was recorded on a plate reader. The cell viability of treated samples was normalised to the untreated controls.
The cytotoxicity studies in spheroids were conducted using the CellTiter-Glo® 3D Cell viability assay (Promega) following the instructions of the manufacturer.

B16 (melanoma) cells = experiment: MTT cytotoxicity assay, B16 cells
L1210 (lymphoma) cells = experiment: MTT cytotoxicity assay, L1210 cells
[2] = Aqueous solubility (MultiScreen Solubility Filter Plate, shake-flask based); conditions: aqueous buffer with 5% DMSO, pH 7.4, aqueous with cosolvent or surfactant or cyclodextrin, kinetic from dmso stock
Procedure: Aqueous solubility of Compounds of the Invention was measured with a modified version of the MultiScreen Solubility Filter Plate protocol (Millipore). This assay was based on the shake-flask equilibrium method and utilizes UV-Vis spectroscopy to quantify the unknown samples. The assay was conducted at room temperature at pH 7.4. […] Compound of the Invention was dissolved in DMSO, and the final DMSO concentration was 5% (v/v). Each sample was analyzed by UV-Vis spectroscopy at 10 nm increments from 260-600 nm to determine the optimal wavelength for detection and construct standard curves. […] A 4:1 mixture of supernatant to acetonitrile was added to a 96-well acrylic plate and analyzed by UV-Vis spectroscopy.
Aqueous solubility was measured with a modified version of the MultiScreen Solubility Filter Plate protocol (Millipore). This assay is based on the shake-flask equilibrium method and utilizes UV-Vis spectroscopy to quantify the unknown samples. The assay is conducted at room temperature at pH 7.4. […] Each compound was dissolved in DMSO, and the final DMSO concentration was 5% (v/v). Each sample was analyzed by UV-Vis spectroscopy at 10 nm increments from 260-600 nm to determine the optimal wavelength for detection and construct standard curves. […] A 4:1 mixture of supernatant to acetonitrile was added to a 96-well acrylic plate and analyzed by UV-Vis spectroscopy.

[3] = tested on: MDA-MB-435 cancer cell line; experiment: SRB antiproliferative assay, MDA-MB-435; format: cell-based, human; conditions: Homo sapiens, MDA-MB-435, 48 h exposure
[4] = Mus musculus, B16, 72 h, read-out: IC50 (μM) B16, 72 h exposure, MTT, mean of three independent experiments
[5] = Mus musculus, L1210, 72 h, read-out: IC50 (μM) L1210, 72 h exposure, MTT, mean of three independent experiments
[6] = read-out: IC50 (μM) B16, 72 h exposure, MTT, mean of three independent experiments
[7] = read-out: IC50 (μM) L1210, 72 h exposure, MTT, mean of three independent experiments

Structure (SMILES)	IC50 (B16 (melanoma) cells; [4]) [µM]	IC50 (L1210 (lymphoma) cells; [5]) [µM]	also measured
COc1cc(/C=C/C(=O)CC(=O)/C=C/c2ccc(O)c(OC)c2)ccc1O [Curcumin]			IC50 [1]: 37 ± 9.4 µM
O=C1/C(=C/c2ccccc2)CNC/C1=C\c1ccccc1 [IA-1]	5 ± 1	0.5	IC50 (μM) B16 (B16 (melanoma) cells; 72 h exposure, MTT, mean of three independent experiments): _Ta
Cc1ccc(/C=C2\CNC/C(=C\c3ccc(C)cc3)C2=O)cc1 [IA-2]			IC50 (B16 (melanoma) cells; [6]): 8 ± 4 µM; IC50 (L1210 (lymphoma) cells; [7]): 3.1 ± 0.1 µM
O=C1/C(=C/c2ccc([N+](=O)[O-])cc2)CNC/C1=C\c1ccc([N+](=O)[O-])cc1 [IA-3]	15	0.3	
COc1ccc(/C=C2\CNC/C(=C\c3ccc(OC)cc3)C2=O)cc1 [IA-4]	25 to 65		IC50 (B16 (melanoma) cells; read-out: IC50 (μM) B16, 72 h exposure, MTT, mean of three independent experiments, listed as 4d): 43 µM; IC50 (L1210 (lymphoma) cells; [7]): 35 ± 8 µM
COc1ccc(/C=C2\CNC/C(=C\c3ccc(OC)c(O)c3)C2=O)cc1O [IA-5]	3 ± 1	0.9 ± 0.3	
COc1cc(/C=C2\CNC/C(=C\c3ccc(O)c(OC)c3)C2=O)ccc1O [IA-6]	1.3 ± 0.6	0.9 ± 0.4	
COc1ccc(/C=C2\CNC/C(=C\c3ccc(OC)c(OC)c3)C2=O)cc1OC [IA-7]	2.3 ± 0.5	0.6 ± 0.2	
COc1cc(/C=C2\CNC/C(=C\c3cc(OC)c(OC)c(OC)c3)C2=O)cc(OC)c1OC [IA-8]	0.3	0.32	IC50 (L1210 (lymphoma) cells; read-out: IC50 (μM) L1210, 72 h exposure, MTT, mean of three independent experiments, listed as 4h): ~0.3 µM; solubility at 6 h [2]: 70 ± 10 µM (≈ 31.9 µg/mL); IC50 [3]: 0.088 µM
CN1C/C(=C\c2ccccc2)C(=O)/C(=C/c2ccccc2)C1 [IB-1]	5 ± 2	2.4 ± 0.3	
Cc1ccc(/C=C2\CNC/C(=C\c3ccc(C)cc3)C2=O)cc1 [IB-2]			IC50 (B16 (melanoma) cells; [6]): 41 ± 6 µM; IC50 (L1210 (lymphoma) cells; [7]): 35 ± 5 µM
CN1C/C(=C\c2ccc([N+](=O)[O-])cc2)C(=O)/C(=C/c2ccc([N+](=O)[O-])cc2)C1 [IB-3]		1.3	IC50 (B16 (melanoma) cells; [6]): 41 ± 2 µM; IC50 (B16 (melanoma) cells; read-out: IC50 (μM) B16, 72 h exposure, MTT, mean of three independent experiments, listed as 5c): 4 µM
COc1ccc(/C=C2\CN(C)C/C(=C\c3ccc(OC)cc3)C2=O)cc1 [IB-4]	23	62	
COc1ccc(/C=C2\CN(C)C/C(=C\c3ccc(OC)c(O)c3)C2=O)cc1O [IB-5]	1.3 to 2.1	0.8 to 1.9	IC50 (B16 (melanoma) cells; [6]): 2.1 ± 0.1 µM; IC50 (L1210 (lymphoma) cells; [7]): 0.8 ± 0.4 µM
COc1cc(/C=C2\CN(C)C/C(=C\c3ccc(O)c(OC)c3)C2=O)ccc1O [IB-6]	1.3 to 2.1		IC50 (B16 (melanoma) cells; [6]): 1.8 ± 0.3 µM; IC50 (L1210 (lymphoma) cells; [7]): 1.9 ± 0.4 µM
COc1ccc(/C=C2\CN(C)C/C(=C\c3ccc(OC)c(OC)c3)C2=O)cc1OC [IB-7]	1.3 to 2.1	0.8 to 1.9	IC50 (B16 (melanoma) cells; [6]): 1.3 ± 0.1 µM; IC50 (L1210 (lymphoma) cells; [7]): 1 ± 0.6 µM
COc1cc(/C=C2\CN(C)C/C(=C\c3cc(OC)c(OC)c(OC)c3)C2=O)cc(OC)c1OC [IB-8]	0.31	0.37	IC50 (B16 (melanoma) cells; read-out: IC50 (μM) B16, 72 h exposure, MTT, mean of three independent experiments, listed as 5 h): ~0.3 µM; IC50 (L1210 (lymphoma) cells; read-out: IC50 (μM) L1210, 72 h exposure, MTT, mean of three independent experiments, listed as 5 h): ~0.3 µM; solubility at 6 h [2]: 160 ± 30 µM (≈ 75.1 µg/mL); IC50 [3]: 0.19 µM
Cc1ccc(/C=C2\CN(C(C)C)C/C(=C\c3ccc(C)cc3)C2=O)cc1 [IC-2]	4 ± 2	2.5 ± 0.7	
CC(C)N1C/C(=C\c2ccc([N+](=O)[O-])cc2)C(=O)/C(=C/c2ccc([N+](=O)[O-])cc2)C1 [IC-3]	3.7 ± 0.6	0.9 ± 0.6	

Structure (SMILES)	IC50 (B16 (melanoma) cells; [4]) [µM]	IC50 (L1210 (lymphoma) cells; [5]) [µM]	also measured
COc1ccc(/C=C2\CN(C(C)C)C/C(=C\c3ccc(OC)c(O)c3)C2=O)cc1O [IC-5, 3,5-Di(3-hydroxy-4-methoxylbenzyliden)-1-isopropylpiperidin-4-one]	1.1	0.4	melting point: 165 to 168 °C
COc1cc(/C=C2\CN(C(C)C)C/C(=C\c3ccc(O)c(OC)c3)C2=O)ccc1O [IC-6]	2.2 ± 0.2	2.2 ± 0.2	
COc1cc(/C=C2\CN(C(C)C)C/C(=C\c3cc(OC)c(OC)c(OC)c3)C2=O)cc(OC)c1OC [IC-8]	25 to 65	25 to 65	IC50 (B16 (melanoma) cells; read-out: IC50 (μM) B16, 72 h exposure, MTT, mean of three independent experiments, listed as 6h): 25.6 µM; IC50 (L1210 (lymphoma) cells; read-out: IC50 (μM) L1210, 72 h exposure, MTT, mean of three independent experiments, listed as 6h): 47 µM and 47.1 µM
O=C1/C(=C/c2ccccc2)CN(Cc2ccccc2)C/C1=C\c1ccccc1 [ID-1]	3.1 ± 0.1	3.4 ± 0.5	
Cc1ccc(/C=C2\CN(Cc3ccccc3)C/C(=C\c3ccc(C)cc3)C2=O)cc1 [ID-2]	14	9	
O=C1/C(=C/c2ccc([N+](=O)[O-])cc2)CN(Cc2ccccc2)C/C1=C\c1ccc([N+](=O)[O-])cc1 [ID-3]	2.5 ± 0.7	2 ± 1	
COc1ccc(/C=C2\CN(Cc3ccccc3)C/C(=C\c3ccc(OC)cc3)C2=O)cc1 [ID-4]	27	8	
COc1ccc(/C=C2\CN(Cc3ccccc3)C/C(=C\c3ccc(OC)c(O)c3)C2=O)cc1O [ID-5]	2.4 ± 0.5	3.1 ± 0.1	
COc1cc(/C=C2\CN(Cc3ccccc3)C/C(=C\c3ccc(O)c(OC)c3)C2=O)ccc1O [ID-6]	2 ± 0.5	2.8 ± 0.4	
COc1ccc(/C=C2\CN(Cc3ccccc3)C/C(=C\c3ccc(OC)c(OC)c3)C2=O)cc1OC [ID-7]	2 ± 0.4	3.3 ± 0.1	IC50 (B16 (melanoma) cells; read-out: IC50 (μM) B16, 72 h exposure, MTT, mean of three independent experiments, listed as 7g): 2.5 ± 0.4 µM
COc1cc(/C=C2\CN(Cc3ccccc3)C/C(=C\c3cc(OC)c(OC)c(OC)c3)C2=O)cc(OC)c1OC [ID-8]	2.4	3.6	solubility at 6 h [2]: 210 ± 20 µM (≈ 115 µg/mL); IC50 [3]: 0.76 µM
O=C1/C(=C/c2ccccc2)CN(c2ccccc2)C/C1=C\c1ccccc1 [IE-1]	7	4 ± 2	
Cc1ccc(/C=C2\CN(c3ccccc3)C/C(=C\c3ccc(C)cc3)C2=O)cc1 [IE-2, 3,5-Di(4-methylbenzylidene)-1-phenylpiperidin-4-one]	> 100	> 100	melting point: 173 to 176 °C
O=C1/C(=C/c2ccc([N+](=O)[O-])cc2)CN(c2ccccc2)C/C1=C\c1ccc([N+](=O)[O-])cc1 [IE-3, 3,5-Di(4-nitrobenzylidene)-1-phenylpiperidin-4-one]			IC50 (B16 (melanoma) cells; [6]): 65 ± 7 µM; IC50 (L1210 (lymphoma) cells; [7]): 65 ± 7 µM; melting point: 184 to 188 °C
COc1ccc(/C=C2\CN(c3ccccc3)C/C(=C\c3ccc(OC)cc3)C2=O)cc1 [IE-4, 3,5-Di(4-methoxybenzylidene)-1-phenylpiperidin-4-one]	25 to 65		IC50 (B16 (melanoma) cells; [6]): 37 ± 6 µM; IC50 (L1210 (lymphoma) cells; [7]): 55 ± 7 µM; melting point: 152 to 155 °C
COc1ccc(/C=C2\CN(c3ccccc3)C/C(=C\c3ccc(OC)c(O)c3)C2=O)cc1O [IE-5, 3,5-Di(3-hydroxy-4-methoxybenzylidene)-1-phenylpiperidin-4-one]	19	6	melting point: 142 to 146 °C
COc1cc(/C=C2\CN(c3ccccc3)C/C(=C\c3ccc(O)c(OC)c3)C2=O)ccc1O [IE-6, 3,5-Di(4-hydroxy-3-methoxybenzylidene)-1-phenylpiperidin-4-one]	2.9 ± 0.4	2.8 ± 0.4	melting point: 139 to 143 °C
COc1ccc(/C=C2\CN(c3ccccc3)C/C(=C\c3ccc(OC)c(OC)c3)C2=O)cc1OC [IE-7, 3,5-Di(3,4-dimethoxybenzylidene)-1-phenylpiperidin-4-one]	1.3 ± 0.1	2.9 ± 0.9	melting point: 144 to 148 °C
